Data set [1] can be described thus: diarrhea activity, fasted rats, samples given by gastric tube, occurrence of diarrhea observed in the following 24 hours. As to conditions: rat, in vivo, po, observed 24 hours, figures in parenthesis indicate confidence limit, read-out: ED50 diarrhea activity. On the set-up: species or system Sprague-Dawly rat. On the procedure:
Each of five male Sprague-Dawly rats, 12 weeks old, in one group was fasted for 24 hours.

For data set [2] the following is noted: Prostaglandins, 5, (5) 455-463 (1974); cited from earlier work.
Data set [3] relates to male Sprague-Dawly rats. The experiment in a line: antiulcer activity, pylorus-ligated fasted rats, samples given by gastric tube, stomach inspected for ulcers 21 hours later. The conditions noted are these: for ED50: Rattus norvegicus, po, pylorus-ligated rats, 21 hours, figures in parenthesis indicate confidence limit; for b)/a) (ED50 diarrhea / ED50 antiulcer): ratio of diarrhea ED50 to antiulcer ED50, p.o., rats. It counts as in vivo, Sprague-Dawly rat. How it is done: Each of ten male Sprague-Dawly rate, 12 weeks old, in one group was isolated in a cage with a large mesh wire net at the bottom during experimental period and prevented from coprophagia. During this period the animals were completely fasted for 48 hours and water was provided only for 32 hours from the beginning. The animal was anesthetized with ether, the pylorus was ligated through a short midline incision. The samples were administered with a gastric tube immediately after the ligation. The animals were sacrificed 21 hours later with chloroform and their abdomens were widely opened to take out the stomach. The stomach was opened for inspection of ulcers.

For data set [4] the following is noted: in vivo; cited from earlier work.

SMILES strings stand for the structures.

A word on the ED50: it is the dose at which the effect has come halfway, by size or by number of responders.

On to `CCCCC[C@@](C)(O)/C=C/[C@H]1[C@H](O)CC(=O)[C@@H]1C/C=C\CCCC(=O)OC` [A, 11α, 15(R)-dihydroxy-15-methyl-9-oxo-5(cis),13(trans)-prostadienoic acid methyl ester], for which, in data set [1], the TD50 at 24 h was determined as 0.12 mg/kg. The “anti-ulcer activity, in words” value in data set [2] is “strong anti-ulcer activity”. Also, in data set [3], the ED50 is 0.098 mg/kg and the “b)/a) (ED50 diarrhea / ED50 antiulcer)” value worked out at 1.2. For the same compound, the “diarrhea as a side effect, in words” value in data set [4] was “very severe diarrhea”.

As to `CCCCC[C@](C)(O)/C=C/[C@H]1[C@H](O)CC(=O)[C@@H]1C/C=C\CCCC(=O)OC` [B, 11α, 15(S)-dihydroxy-15-methyl-9-oxo-5(cis),13(trans)-prostadienoic acid methyl ester], the TD50 at 24 h in data set [1] worked out at 0.047 mg/kg. Also, in data set [3], the ED50 was determined as 0.06 mg/kg and the “b)/a) (ED50 diarrhea / ED50 antiulcer)” value worked out at 0.8.

In the case of `CCCCC[C@@](C)(O)/C=C/[C@H]1[C@H](O)CC(=O)[C@@H]1C/C=C\CC(C)CC(=O)OC` (stereo partly drawn) [Compound C, 11α, 15(R)-dihydroxy-3,15-dimethyl-9-oxo-5(cis), 13(trans)-prostadienoic acid methyl ester], the TD50 at 24 h in data set [1] stood at 1.2 mg/kg. In data set [3], the ED50 was determined as 0.2 mg/kg and the “b)/a) (ED50 diarrhea / ED50 antiulcer)” value was 6.0.

Values taken from patent US4058665A, “Novel 3,15-dilower alkyl PGE2 derivatives” (Yamanouchi Pharmaceutical Co., Ltd., priority 1975, dated 1977).
